From patent publication US9511058B2, “Methods for using carboxamide, sulfonamide and amine compounds” (Rigel Pharmaceuticals, Inc., priority 2010, dated 2016) come the findings set out here.

In the first experiment the target is AMPK. The experiment in a line: AMPK activation, enzyme-linked immunosorbent assay. Conditions: compounds of Table 1 (Table 6). In kind it is biochemical.
Regarding `O=C(NC1CCN(Cc2ccccc2)CC1)c1ccc(OC2CCN(c3ccc(C(F)(F)F)cc3)CC2)cn1` [1-38, N-(1-benzylpiperidin-4-yl)-5-(1-(4-(trifluoromethyl)phenyl)piperidin-4-yloxy)picolinamide], the EC50 was 1000 to 5000 nM. Turning to `CN(C(=O)c1cc2cc(OC3CCN(c4ccc(C(F)(F)F)cc4)CC3)ccc2o1)C1CCN(Cc2ccncc2)CC1` [1-104, N-methyl-N-(1-(pyridin-4-ylmethyl)piperidin-4-yl)-5-(1-(4-(trifluoromethyl)phenyl)piperidin-4-yloxy)benzofuran-2-carboxamide], the EC50 lay within 100 to 500 nM.

Turning to `Cc1c(C(=O)NC2CCN(Cc3ccncc3)CC2)oc2cc(OC3CCN(c4ccc(C(F)(F)F)cc4)CC3)ccc12` [1-65, 3-methyl-N-(1-(pyridin-4-ylmethyl)piperidin-4-yl)-6-(1-(4-(trifluoromethyl)phenyl)piperidin-4-yloxy)benzofuran-2-carboxamide], the EC50 was under 100 nM. Still for that read-out and setting: to `Cc1c(C(=O)NC2CCNCC2)oc2cc(OC3CCN(c4ccc(C(F)(F)F)cc4)CC3)ccc12` [1-62, 3-methyl-N-(piperidin-4-yl)-6-(1-(4-(trifluoromethyl)phenyl)piperidin-4-yloxy)benzofuran-2-carboxamide] belongs 5000 to 10000 nM; to `N#Cc1ccc(CN2CC[C@@H](NC(=O)c3ccc(OC4CCN(c5ccc(C(F)(F)F)cc5)CC4)cn3)C2)cc1` [1-33, (R)-N-(1-(4-cyanobenzyl)pyrrolidin-3-yl)-5-(1-(4-(trifluoromethyl)phenyl)piperidin-4-yloxy)picolinamide], 500 to 1000 nM.

As for `O=C(NC1CCN(Cc2ccncc2)CC1)c1cccc(OC2CCN(c3ccc(C(F)(F)F)cc3)CC2)n1` [1-43, N-(1-(pyridin-4-ylmethyl)piperidin-4-yl)-6-(1-(4-(trifluoromethyl)phenyl)piperidin-4-yloxy)picolinamide], the EC50 lay within 1000 to 5000 nM. The same measure, in the same setting: next, `O=C(NC1CCN(C(=O)c2ccncc2)CC1)c1cc2ccc(OC3CCN(c4ccc(C(F)(F)F)cc4)CC3)cc2o1` [1-112, N-(1-isonicotinoylpiperidin-4-yl)-6-(1-(4-(trifluoromethyl)phenyl)piperidin-4-yloxy)benzofuran-2-carboxamide]: under 100 nM. Same read-out and setting: to `O=C(NCCCNCc1ccncc1)c1ccc(OC2CCN(c3ccc(C(F)(F)F)cc3)CC2)cn1` [1-50, N-(3-(pyridin-4-ylmethylamino)propyl)-5-(1-(4-(trifluoromethyl)phenyl)piperidin-4-yloxy)picolinamide] belongs 1000 to 5000 nM. Still for that read-out and setting: to `CC(C)(C)OC(=O)N1CCC(NC(=O)c2cc3cc(OC4CCN(Cc5ccc(C#N)cc5)CC4)ccc3o2)CC1` [1-113, tert-butyl 4-(5-(1-(4-cyanobenzyl)piperidin-4-yloxy)benzofuran-2-carboxamido)piperidine-1-carboxylate] belongs 100 to 500 nM; to `N#Cc1ccc(CN2CCC(NS(=O)(=O)c3ccc(OC4CCN(c5ccc(C(F)(F)F)cc5)CC4)nc3)CC2)cc1` [1-56, N-(1-(4-cyanobenzyl)piperidin-4-yl)-6-(1-(4-(trifluoromethyl)phenyl)piperidin-4-yloxy)pyridine-3-sulfonamide], 5000 to 10000 nM.

The same experiment, now with this note: compounds of Table 2 (Table 7).
With `O=C(NC1CCN(S(=O)(=O)c2ccc(F)cc2)CC1)c1ccc2[nH]c3c(c2c1)CN(Cc1ccc(C(F)(F)F)cc1)CC3` [2-28, N-(1-(4-fluorophenyl-sulfonyl)piperidin-4-yl)-2-(4-(trifluoro-methyl)benzyl)-2,3,4,5-tetrahydro-1H-pyrido [4,3-b]indole-8-carboxamide], the EC50 was in the range of 1000 to 5000 nM. Compound `N#Cc1ccc(CN2CCC(NC(=O)c3ccc4[nH]c5c(c4c3)CN(Cc3ccc(C(N)=O)cc3)CC5)CC2)cc1` [2-44, 2-(4-carbamoylbenzyl)-N-(1-(4-cyanobenzyl)piperidin-4-yl)-2,3,4,5-tetrahydro-1H-pyrido [4,3-b]indole-8-carboxamide] had an EC50 of 10000 to 50000 nM.

`Cn1c2c(c3cc(C(=O)NC4CCN(Cc5ccc(C(F)(F)F)cc5)CC4)ccc31)CN(Cc1ccc(C(F)(F)F)cc1)CC2` [2-17, N-(1-(4-trifluoro-methylbenzyl)piperidin-4-yl)-5-methyl-2-(4-(trifluoromethyl)benzyl)-2,3,4,5-tetrahydro-1H-pyrido[4,3-b]indole-8-carboxamide]: the EC50 fell in the range of 500 to 1000 nM. In turn, `O=C(NC1CCN(S(=O)(=O)c2cccnc2)CC1)c1ccc2[nH]c3c(c2c1)CN(Cc1ccc(C(F)(F)F)cc1)CC3` [2-22, N-(1-(pyridin-3-ylsulfonyl)piperidin-4-yl)-2-(4-(trifluoromethyl)benzyl)-2,3,4,5-tetrahydro-1H-pyrido[4,3-b]indole-8-carboxamide] gave an EC50 of 500 to 1000 nM. Consider `O=C(NC1CCN(C(=O)c2ccc(C(F)(F)F)cc2)CC1)c1ccc2[nH]c3c(c2c1)CN(c1ccc(F)cc1)CC3` [2-41, 2-(4-fluorophenyl)-N-(1-(4-(trifluoromethyl)benzoyl)piperidin-4-yl)-2,3,4,5-tetrahydro-1H-pyrido[4,3-b]indole-8-carboxamide], for which the EC50 fell in the range of 10000 to 50000 nM.

In the case of `N#Cc1cccc(S(=O)(=O)N2CCC(NC(=O)c3ccc4[nH]c5c(c4c3)CN(Cc3ccc(C(F)(F)F)cc3)CC5)CC2)c1` [2-29, N-(1-(3-cyanophenyl-sulfonyl)piperidin-4-yl)-2-(4-(trifluoro-methyl)benzyl)-2,3,4,5-tetrahydro-1H-pyrido[4,3-b]indole-8-carboxamide], the EC50 was 1000 to 5000 nM.

Staying with this experiment, now noted: compounds of Table 3 (Table 8).
Turning to `O=C(c1ccc(F)cc1)N1CC2CC1CN2C(=O)c1nc2ccc(OC3CCN(c4ccc(C(F)(F)F)cc4)CC3)cc2o1` (centres unmarked) [3-13, (5-(4-fluorobenzoyl)-2,5-diazabicyclo[2.2.1]heptan-2-yl)(6-(1-(4-(trifluoromethyl)phenyl)piperidin-4-yloxy)benzo[d]oxazol-2-yl)methanone], the EC50 is under 100 nM. The same measure, in the same setting: to `O=C(NC1CCN(Cc2ccncc2)CC1)c1cn2ccc(OC3CCN(c4ccc(C(F)(F)F)cc4)CC3)cc2n1` [3-17, N-(1-(pyridin-4-ylmethyl)piperidin-4-yl)-7-(1-(4-(trifluoromethyl)phenyl)piperidin-4-yloxy)imidazo[1,2-a]pyridine-2-carboxamide] belongs under 100 nM; to `N#Cc1ccc(CN2CCc3ccc(C(=O)NC4CCN(Cc5ccc(C(F)(F)F)cc5)CC4)cc3C2)cc1` [3-39, 2-(4-cyanobenzyl)-N-(1-(4-(trifluoromethyl)benzyl)piperidin-4-yl)-1,2,3,4-tetrahydroisoquinoline-7-carboxamide], 1000 to 10000 nM.

The experiment is the same for the next values; noted with them: compounds of Table 4 (Table 9).
As to `N#Cc1ccc(CN2CCC(NC(=O)c3ccc(C(=O)N4CCN(Cc5ccc(C(F)(F)F)cc5)CC4)cn3)CC2)cc1` [4-3, N-(1-(4-cyanobenzyl)piperidin-4-yl)-5-(4-(4-(trifluoromethyl)benzyl)piperazine-1-carbonyl)picolinamide], the EC50 was under 500 nM.

Staying with this experiment, now noted: compounds of Table 5 (Table 10).
Take `CC(C)(C)OC(=O)N1CCC(Oc2ccc(C(=O)NC3CCN(Cc4ccccc4)CC3)cc2Cl)CC1` [5-90, tert-butyl 4-(4-(1-benzylpiperidin-4-ylcarbamoyl)-2-chlorophenoxy)piperidine-1-carboxylate]: the EC50 lay within 1000 to 10000 nM. `O=C(NC1CCN(Cc2ccccc2)CC1)c1ccc(OC2CCN(Cc3ccco3)CC2)cc1` [5-3, N-(1-benzylpiperidin-4-yl)-4-(1-(furan-2-ylmethyl)piperidin-4-yloxy)benzamide] gave an EC50 of 1000 to 10000 nM. On the same count and under the same terms, next, `O=C(NC1CCN(Cc2ccccc2)CC1)c1cccc(OC2CCN(Cc3ccc(C(F)(F)F)cc3)CC2)c1` [5-52, N-(1-benzylpiperidin-4-yl)-3-(1-(4-(trifluoromethyl)benzyl)piperidin-4-yloxy)benzamide]: 1000 to 10000 nM; `O=C(NC1CCN(Cc2ccccc2)CC1)c1ccc(OC2CCN(Cc3cccc(C(F)(F)F)c3)CC2)c(Cl)c1` [5-60, N-(1-benzylpiperidin-4-yl)-3-chloro-4-(1-(3-(trifluoromethyl)benzyl)piperidin-4-yloxy)benzamide]: under 1000 nM; `O=C(NC1CCN(Cc2ccccc2)CC1)c1ccc(OC2CCN(Cc3ccc4c(c3)OCCO4)CC2)c(Cl)c1` [5-15, N-(1-benzylpiperidin-4-yl)-3-chloro-4-(1-((2,3-dihydrobenzo[b][1,4]dioxin-6-yl)methyl)piperidin-4-yloxy)benzamide]: under 1000 nM. The same measure, in the same setting: next, `O=C(NC1CCN(Cc2ccccc2)CC1)c1cccc(OC2CCN(c3ccc(C(F)(F)F)cc3)CC2)c1` [5-46, N-(1-benzylpiperidin-4-yl)-3-(1-(4-(trifluoromethyl)phenyl)piperidin-4-yloxy)benzamide]: under 1000 nM; `O=C(NC1CCN(Cc2ccccc2)CC1)c1ccc(OC2CCN(Cc3ccc(F)cc3)CC2)c(Cl)c1` [5-19, N-(1-benzylpiperidin-4-yl)-3-chloro-4-(1-(4-fluorobenzyl)piperidin-4-yloxy)benzamide]: under 1000 nM; `N#Cc1ccc(N2CCC(Oc3cccc(C(=O)NC4CCN(Cc5ccccc5)CC4)c3)CC2)cc1` [5-48, N-(1-benzylpiperidin-4-yl)-3-(1-(4-cyanophenyl)piperidin-4-yloxy)benzamide]: under 1000 nM.

On to `COc1ccc(CN2CCC(Oc3ccc(C(=O)NCCCN4CCOCC4)cc3Cl)CC2)cc1` [5-101, 3-chloro-4-(1-(4-methoxybenzyl)piperidin-4-yloxy)-N-(3-morpholinopropyl)benzamide], for which the EC50 fell in the range of 10000 to 20000 nM. Still for that read-out and setting: next, `O=C(NC1CCN(Cc2ccccc2)CC1)c1ccc(OC2CCN(Cc3ccccc3)CC2)c(Cl)c1` [5-14, N-(1-benzylpiperidin-4-yl)-4-(1-benzylpiperidin-4-yloxy)-3-chlorobenzamide]: under 1000 nM; `O=C(NC1CCN(Cc2ccccc2)CC1)c1ccc(OC2CCN(Cc3ccc(F)c(F)c3)CC2)c(F)c1` [5-69, N-(1-benzylpiperidin-4-yl)-4-(1-(3,4-difluorobenzyl)piperidin-4-yloxy)-3-fluorobenzamide]: under 1000 nM; `N#Cc1ccc(CN2CCC(Oc3ccc(C(=O)NC4CCN(Cc5ccccc5)CC4)cc3Cl)CC2)cc1` [5-67, N-(1-benzylpiperidin-4-yl)-3-chloro-4-(1-(4-cyanobenzyl)piperidin-4-yloxy)benzamide]: under 1000 nM.
